From US10669283B2, “Compound and pharmacologically acceptable salt thereof” (MEIJI SEIKA PHARMA CO., LTD., priority 2016, dated 2020) come the findings set out here.

Where only a bound is given, the exact number is not on record here.

The test system of the first test is PDE4. Briefly: PDE4 inhibition, scintillation proximity assay (SPA).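 For PDE4 Inhibitory Activity (concentration for the inhibition rate of 50%): A below 100 nM B 100 to below 1000 nM C 1000 nM or more.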 It is filed as biochemical. The settings on record: scintillation proximity assay (SPA); evaluated as classes A, B, C; read-out: PDE4 Inhibitory Activity (concentration for the inhibition rate of 50%). In short, it runs like this: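 Scintillation proximity read-out: [2,8-3H]-cAMP hydrolysis by PDE4 ran 120 min at room temperature in Tris-HCl pH 7.4 buffer with 8.3 mM MgCl2, 1.7 mM EGTA and 3 mg/mL BSA. Bead-bound product (YSi-SPA with ZnSO4, 15 min) counted; blank lacks enzyme, control has DMSO only.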
As for `CC(O)COC(c1cc(-c2nccs2)c2oc(N3CC4CCC(C3)N4)nc2c1)C(F)(F)F` (stereo not shown) [Example 155, 1-(1-(2-(3,8-Diazabicyclo[3.2.1]octan-3-yl)-7-(thiazol-2-yl)benzo[d]oxazol-5-yl)-2,2,2-trifluoroethoxy)propan-2-ol], the IC50 is less than 100 nM.

Consider `FC(F)(F)Oc1c(Cl)cc(-c2nccs2)c2oc(N3CC4CCCC(C3)N4)nc12` [Example 2, 2-(3,9-Diazabicyclo[3.3.1]nonan-3-yl)-5-chloro-7-(thiazol-2-yl)-4-(trifluoromethoxy)benzo[d]oxazole], for which the IC50 was less than 100 nM.

Consider `NC(=O)c1cc(-c2nccs2)c2oc(N3CC4CCC(C3)N4)nc2c1` [Example 99, 2-(3,8-Diazabicyclo[3.2.1]octan-3-yl)-7-(thiazol-2-yl) benzo[d]oxazole-5-carboxamide], for which the IC50 was less than 100 nM.

In the case of `CSc1cc(-c2nccs2)c2oc(N3CC4CCCC(C3)N4)nc2c1` [Example 41, 2-(3,9-Diazabicyclo[3.3.1]nonan-3-yl)-5-(methylthio)-7-(thiazol-2-yl)benzo[d]oxazole], the IC50 is less than 100 nM.

Regarding `CC(O)(c1ccc(-c2nccs2)c2oc(N3CC4CCC(C3)N4)nc12)C(F)F` (stereo not shown) [Example 129, 2-(2-(3,8-Diazabicyclo[3.2.1]octan-3-yl)-7-(thiazol-2-yl)benzo[d]oxazol-4-yl)-1,1-difluoropropan-2-ol], the IC50 is less than 100 nM.

For the molecule `N#CCOC(c1ccc(-c2nccs2)c2oc(N3CC4CC(C3)N4)nc12)C(F)(F)F` (stereo not shown) [Example 226, 2-(1-(2-(3,6-Diazabicyclo[3.1.1]heptan-3-yl)-7-(thiazol-2-yl)benzo[d]oxazol-4-yl)-2,2,2-trifluoroethoxy)acetonitrile], the IC50 was less than 100 nM.

With `O=C(c1cc(-c2nccs2)c2oc(N3CC4CCC(C3)N4)nc2c1)N1CCC1` [Example 97, (2-(3,8-Diazabicyclo[3.2.1]octan-3-yl)-7-(thiazol-2-yl)benzo[d]oxazol-5-yl)(azetidin-1-yl)methanone], the IC50 is less than 100 nM.

For the molecule `FC(F)(F)c1c(Cl)cc(-n2cccn2)c2oc(N3CC4CCCC(C3)N4)nc12` [Example 16, 2-(3,9-Diazabicyclo[3.3.1]nonan-3-yl)-5-chloro-7-(1H-pyrazol-1-yl)-4-(trifluoromethyl)benzo[d]oxazole], the IC50 was less than 100 nM.

As to `CS(=O)(=O)c1cc(-c2nccs2)c2oc(N3CC4CC(C3)N4)nc2c1` [Example 46, 2-(3,6-Diazabicyclo[3.1.1]heptan-3-yl)-5-(methylsulfonyl)-7-(thiazol-2-yl)benzo[d]oxazole], the IC50 was less than 100 nM.

Regarding `FC(F)(F)COc1cc(-c2nccs2)c2oc(N3CC4CC(C3)N4)nc2c1` [Example 67, 2-(3,6-Diazabicyclo[3.1.1]heptan-3-yl)-7-(thiazol-2-yl)-5-(2,2,2-trifluoroethoxy)benzo[d]oxazole], the IC50 is less than 100 nM.

With `CC(C)(O)C(F)(F)OC(c1ccc(-c2nccs2)c2oc(N3CC4CC(C3)N4)nc12)C(F)(F)F` (stereo not shown) [Example 257, 1-(1-(2-(3,6-Diazabicyclo[3.1.1]heptan-3-yl)-7-(thiazol-2-yl)benzo[d]oxazol-4-yl)-2,2,2-trifluoroethoxy)-1,1-difluoro-2-methylpropan-2-ol], the IC50 was less than 100 nM.

Turning to `C=CCOc1cc(-c2nccs2)c2oc(N3CC4CCC(C3)N4)nc2c1` [Example 72, 5-(Allyloxy)-2-(3,8-diazabicyclo[3.2.1]octan-3-yl)-7-(thiazol-2-yl)benzo[d]oxazole], the IC50 was less than 100 nM.

With `CC(O)(c1ccc(-c2nccs2)c2oc(N3CC4CC(C3)N4)nc12)C(F)F` (stereo not shown) [Example 296, 2-(2-(3,6-Diazabicyclo[3.1.1]heptan-3-yl)-7-(thiazol-2-yl)benzo[d]oxazol-4-yl)-1,1-difluoropropan-2-ol], the IC50 is less than 100 nM.

As for `CC(O)c1cc(-c2nccs2)c2oc(N3CC4CCC(C3)N4)nc2c1` (stereo not shown) [Example 106, 1-(2-(3,8-Diazabicyclo[3.2.1]octan-3-yl)-7-(thiazol-2-yl)benzo[d]oxazol-5-yl)ethan-1-ol], the IC50 was less than 100 nM.

Take `Cc1ccc(-c2nccs2)c2oc(N3CC4CCCC(C3)N4)nc12` [Example 27, 2-(3,9-Diazabicyclo[3.3.1]nonan-3-yl)-4-methyl-7-(thiazol-2-yl)benzo[d]oxazole]: the IC50 was less than 100 nM.

For the molecule `OCC(F)(F)Oc1ccc(-c2cscn2)c2oc(N3CC4CC(C3)N4)nc12` [Example 311, 2-((2-(3,6-Diazabicyclo[3.1.1]heptan-3-yl)-7-(thiazol-4-yl)benzo[d]oxazol-4-yl)oxy)-2,2-difluoroethan-1-ol], the IC50 is less than 100 nM.

For `CC(C)(CO)Oc1ccc(-c2nccs2)c2oc(N3CC4CC(C3)N4)nc12` [Example 268, 2-((2-(3,6-Diazabicyclo[3.1.1]heptan-3-yl)-7-(thiazol-2-yl)benzo[d]oxazol-4-yl)oxy)-2-methylpropan-1-ol], the IC50 is less than 100 nM.

Consider `CCOC(=O)c1cc(-c2nccs2)c2oc(N3CC4CC(C3)N4)nc2c1C(F)(F)F` [Example 165, Ethyl 2-(3,6-diazabicyclo[3.1.1]heptan-3-yl)-7-(thiazol-2-yl)-4-(trifluoromethyl)benzo[d]oxazole-5-carboxylate], for which the IC50 is less than 100 nM.

Turning to `COC(c1cc(-c2nccs2)c2oc(N3CC4CC(C3)N4)nc2c1)C(F)(F)F` (stereo not shown) [Example 144, 2-(3,6-Diazabicyclo[3.1.1]heptan-3-yl)-7-(thiazol-2-yl)-5-(2,2,2-trifluoro-1-methoxyethyl)benzo[d]oxazole], the IC50 was less than 100 nM.

Regarding `OC(O)(c1cc(-c2nccs2)c2oc(N3CC4CC(C3)N4)nc2c1)C(F)(F)F` [Example 158, 1-(2-(3,6-Diazabicyclo[3.1.1]heptan-3-yl)-7-(thiazol-2-yl)benzo[d]oxazol-5-yl)-2,2,2-trifluoroethane-1,1-diol], the IC50 lay in the range of 100 to 1000 nM.

For the molecule `OC(c1cc(-c2nccs2)c2oc(N3CC4CCC(C3)N4)nc2c1OC(F)(F)F)C(F)F` (stereo not shown) [Example 206, 1-(2-(3,8-Diazabicyclo[3.2.1]octan-3-yl)-7-(thiazol-2-yl)-4-(trifluoromethoxy)benzo[d]oxazol-5-yl)-2,2-difluoroethan-1-ol], the IC50 is less than 100 nM.

In the case of `OC(c1ccc(-c2nccs2)c2oc(N3CC4CC(C3)N4)nc12)C(F)F` (stereo not shown) [Example 125, 1-(2-(3,6-Diazabicyclo[3.1.1]heptan-3-yl)-7-(thiazol-2-yl)benzo[d]oxazol-4-yl)-2,2-difluoroethan-1-ol], the IC50 was less than 100 nM.

`COC(C)(c1cc(-c2nccs2)c2oc(N3CC4CC(C3)N4)nc2c1OC(F)(F)F)C(F)(F)F` (stereo not shown) [Example 214, 2-(3,6-Diazabicyclo[3.1.1]heptan-3-yl)-7-(thiazol-2-yl)-5-(1,1,1-trifluoro-2-methoxypropan-2-yl)-4-(trifluoromethoxy)benzo[d]oxazole]: the IC50 is less than 100 nM.

For `OC(c1ccc(-c2nccs2)c2oc(N3CC4CCC(C3)N4)nc12)C(F)(F)F` (stereo not shown) [Example 119, 1-(2-(3,8-Diazabicyclo[3.2.1]octan-3-yl)-7-(thiazol-2-yl)benzo[d]oxazol-4-yl)-2,2,2-trifluoroethan-1-ol], the IC50 was less than 100 nM.

The same test, now with this note: scintillation proximity assay; class symbols; read-out: PDE4 Inhibitory Activity.
With `CC(O)(O)C(F)(F)Oc1ccc(-c2nccs2)c2oc(N3CC4CC(C3)N4)nc12` [Example 377, 1-((2-(3,6-diazabicyclo[3.1.1]heptan-3-yl)-7-(thiazol-2-yl)benzo[d]oxazol-4-yl)oxy)-1,1-difluoropropane-2,2-diol], the IC50 is less than 100 nM.
